Measured values as given in patent publication US20250108038A1 (priority 2023, published 2025).
Where “and” joins values, the source holds several entries; their conditions need not be identical. Equal values may be shown once.

Assay: Pharmacokinetics after single oral administration to beagle dogs;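 as to AUC0-inf of Compound A (as titled): compound A is measured in plasma as a metabolite of the dosed analog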;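 as to AUC0-last of Compound A (as titled): compound A is measured in plasma as a metabolite of the dosed analog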;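 as to T1/2 of Compound A (as titled): compound A is measured in plasma as a metabolite of the dosed analog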;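 as to Tlast of Compound A (as titled): compound A is measured in plasma as a metabolite of the dosed analog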
Type: in vivo
Conditions: for plasma concentration of Compound I-17/I-19: single PO 10 mg/kg; for plasma concentration of Compound I-17/I-19 (as titled): single PO 80 mg/kg (as titled)
Protocol: The concentrations of the analytes in the plasma were quantified by liquid chromatography tandem mass spectrometry (LC-MS/MS).
The bioanalytical assay provided a lower limit of quantification (LLOQ) of 1.0 ng/mL and an upper limit of quantification (ULOQ) of 3000 ng/mL for all the analytes. The data of plasma concentration vs. time were analyzed using Phoenix WinNonlin 8.3 to determine the PK properties of the analytes.
The test articles were administered orally by gavage. The nominal dose volume was 5 mL/kg for both analogs.
The observation included appearance, behavior, morbidity and mortality.
Approximately 0.5 mL blood was collected at each scheduled time point from the peripheral veins.
The plasma samples were placed in microcentrifuge tubes and stored at −70+10° C. until analysis.

[1] = after single PO 10 mg/kg of Compound I-17/I-19, female individual
[2] = after single PO 10 mg/kg of Compound I-17/I-19, female individual, 10 mg/kg
[3] = after single PO 10 mg/kg of Compound I-17/I-19, female mean
[4] = after single PO 10 mg/kg of Compound I-17/I-19, male individual, 10 mg/kg
[5] = after single PO 10 mg/kg of Compound I-17/I-19, male mean
[6] = after single PO 80 mg/kg (so in the source) of Compound I-17/I-19, female individual, 80 mg/kg
[7] = after single PO 80 mg/kg (so in the source) of Compound I-17/I-19, female mean
[8] = after single PO 80 mg/kg (so in the source) of Compound I-17/I-19, female mean, 80 mg/kg
[9] = after single PO 80 mg/kg (so in the source) of Compound I-17/I-19, male individual
[10] = after single PO 80 mg/kg (so in the source) of Compound I-17/I-19, male individual, 80 mg/kg
[11] = after single PO 80 mg/kg (so in the source) of Compound I-17/I-19, male mean
[12] = oral 10 mg/kg, female dogs, 10 mg/kg

## CC(C)/C=C/COC1(c2ccc(Cl)cc2)c2ccccc2C2=NCCN21 (stereo not shown) [Compound I-17]
[1]
  T1/2 of Compound A (as titled): 5.87 h
  Tlast of Compound A (as titled): 24.0 h
[2]
  AUC0-inf of Compound A (as titled): 756 ng·h/mL and 946 ng·h/mL
  AUC0-last of Compound A (as titled): 736 ng·h/mL and 915 ng·h/mL
  Cmax of Compound A (as titled): 293 ng/mL and 252 ng/mL
  MRT0-inf of Compound A (as titled): 4.62 h and 5.07 h
  MRT0-last of Compound A (as titled): 3.88 h and 4.14 h
  T1/2 of Compound A (as titled): 6.33 h
  Tmax of Compound A (as titled): 1.00 h and 2.00 h
[3]
  AUC0-inf of Compound A (as titled): 851 ng·h/mL
  AUC0-last of Compound A (as titled): 826 ng·h/mL
  Cmax of Compound A (as titled): 272 ng/mL
  MRT0-inf of Compound A (as titled): 4.84 h
  MRT0-last of Compound A (as titled): 4.01 h
  T1/2 of Compound A (as titled): 6.10 h
  Tlast of Compound A (as titled): 24.0 h
  Tmax of Compound A (as titled): 1.50 h
After single PO 10 mg/kg of Compound I-17/I-19, male individual
  Tmax of Compound A (as titled): 1.00 h
[4]
  AUC0-inf of Compound A (as titled): 229 ng·h/mL and 522 ng·h/mL
  AUC0-last of Compound A (as titled): 209 ng·h/mL and 513 ng·h/mL
  Cmax of Compound A (as titled): 89.0 ng/mL and 212 ng/mL
  MRT0-inf of Compound A (as titled): 3.07 h and 3.86 h
  MRT0-last of Compound A (as titled): 2.15 h and 3.33 h
  T1/2 of Compound A (as titled): 3.08 h and 5.70 h
  Tlast of Compound A (as titled): 8.00 h and 24.0 h
[5]
  AUC0-inf of Compound A (as titled): 376 ng·h/mL
  AUC0-last of Compound A (as titled): 361 ng·h/mL
  Cmax of Compound A (as titled): 151 ng/mL
  MRT0-inf of Compound A (as titled): 3.46 h
  MRT0-last of Compound A (as titled): 2.74 h
  T1/2 of Compound A (as titled): 4.39 h
  Tlast of Compound A (as titled): 16.0 h
  Tmax of Compound A (as titled): 1.00 h
After single PO 80 mg/kg (so in the source) of Compound I-17/I-19, female individual
  T1/2 of Compound A: 24.0 h
[6]
  Cmax of Compound A: 4.00 ng/mL and 2.00 ng/mL
  MRT0-inf of Compound A: 0.989 h and 0.999 h
  MRT0-last of Compound A: 11.2 h and 11.5 h
  Tmax of Compound A: 7.07 h and 7.31 h
[7]
  MRT0-inf of Compound A: 0.994 h
  Tlast of Compound A: 323 h
[8]
  AUC0-last of Compound A: 323 ng·h/mL
  MRT0-last of Compound A: 11.3 h
[9]
  Tlast of Compound A: 24.0 h
  Tmax of Compound A: 2.00 h
[10]
  AUC0-inf of Compound A: 278 ng·h/mL and 298 ng·h/mL
  AUC0-last of Compound A: 258 ng·h/mL and 278 ng·h/mL
  Cmax of Compound A: 25.9 ng/mL and 31.6 ng/mL
  MRT0-inf of Compound A: 9.72 h and 9.19 h
  MRT0-last of Compound A: 7.90 h and 7.43 h
  T1/2 of Compound A: 6.33 h and 6.23 h
[11]
  AUC0-inf of Compound A: 288 ng·h/mL
  AUC0-last of Compound A: 268 ng·h/mL
  Cmax of Compound A: 28.8 ng/mL
  MRT0-inf of Compound A: 9.45 h
  MRT0-last of Compound A: 7.66 h
  T1/2 of Compound A: 6.28 h
  Tlast of Compound A: 24.0 h
  Tmax of Compound A: 2.00 h
Oral 10 mg/kg, female dogs
  Cmax of the analog (Compound I-17/I-19): 272 ng/mL
  T1/2 of the analog (Compound I-17/I-19): 6.10 hours
  Tmax of the analog (Compound I-17/I-19): 1.5 hour
[12]
  AUC0-last of the analog (Compound I-17/I-19): 826 ng·h/mL and 836 ng·h/mL
  MRT0-last of the analog (Compound I-17/I-19): 4.01 hours and 2.47 hours
Oral 10 mg/kg, male dogs
  Cmax of the analog (Compound I-17/I-19): 151 ng/mL
  T1/2 of the analog (Compound I-17/I-19): 4.39 hours
  Tmax of the analog (Compound I-17/I-19): 1 hour
Oral 10 mg/kg, male dogs, 10 mg/kg
  MRT0-last of the analog (Compound I-17/I-19): 2.74 hours and 2.30 hours
0.500 h, female individual, 10 mg/kg
  plasma concentration of Compound I-17/I-19: 128 ng/mL and 106 ng/mL
0.500 h, female mean
  plasma concentration of Compound I-17/I-19: 117 ng/mL
0.500 h, male individual, 10 mg/kg
  plasma concentration of Compound I-17/I-19: 73.5 ng/mL and 176 ng/mL
0.500 h, male mean
  plasma concentration of Compound I-17/I-19: 125 ng/mL
  plasma concentration of Compound I-17/I-19 (as titled): 10.6 ng/mL
1.00 h, female individual, 10 mg/kg
  plasma concentration of Compound I-17/I-19: 293 ng/mL and 236 ng/mL
1.00 h, female mean
  plasma concentration of Compound I-17/I-19: 265 ng/mL
1.00 h, male individual, 10 mg/kg
  plasma concentration of Compound I-17/I-19: 89.0 ng/mL and 212 ng/mL
1.00 h, male mean
  plasma concentration of Compound I-17/I-19: 151 ng/mL
2.00 h, female individual, 10 mg/kg
  plasma concentration of Compound I-17/I-19: 164 ng/mL and 252 ng/mL
2.00 h, female mean
  plasma concentration of Compound I-17/I-19: 208 ng/mL
  plasma concentration of Compound I-17/I-19 (as titled): 29.7 ng/mL
2.00 h, male individual, 10 mg/kg
  plasma concentration of Compound I-17/I-19: 51.0 ng/mL and 101 ng/mL
2.00 h, male mean
  plasma concentration of Compound I-17/I-19: 75.8 ng/mL
  plasma concentration of Compound I-17/I-19 (as titled): 28.8 ng/mL
4.00 h, female individual, 10 mg/kg
  plasma concentration of Compound I-17/I-19: 43.0 ng/mL and 77.4 ng/mL
4.00 h, female mean
  plasma concentration of Compound I-17/I-19: 60.2 ng/mL
  plasma concentration of Compound I-17/I-19 (as titled): 30.5 ng/mL
4.00 h, male individual, 10 mg/kg
  plasma concentration of Compound I-17/I-19: 11.2 ng/mL and 26.5 ng/mL
4.00 h, male mean
  plasma concentration of Compound I-17/I-19: 18.9 ng/mL
  plasma concentration of Compound I-17/I-19 (as titled): 27.3 ng/mL
6.00 h, female individual, 10 mg/kg
  plasma concentration of Compound I-17/I-19: 20.8 ng/mL and 28.2 ng/mL
6.00 h, female mean
  plasma concentration of Compound I-17/I-19: 24.5 ng/mL
  plasma concentration of Compound I-17/I-19 (as titled): 20.5 ng/mL
6.00 h, male individual, 10 mg/kg
  plasma concentration of Compound I-17/I-19: 6.77 ng/mL and 10.2 ng/mL
6.00 h, male mean
  plasma concentration of Compound I-17/I-19: 8.47 ng/mL
  plasma concentration of Compound I-17/I-19 (as titled): 15.4 ng/mL
8.00 h, female individual, 10 mg/kg
  plasma concentration of Compound I-17/I-19: 13.6 ng/mL and 15.0 ng/mL
8.00 h, female mean
  plasma concentration of Compound I-17/I-19: 14.3 ng/mL
  plasma concentration of Compound I-17/I-19 (as titled): 18.1 ng/mL
8.00 h, male individual, 10 mg/kg
  plasma concentration of Compound I-17/I-19: 4.57 ng/mL and 8.39 ng/mL
8.00 h, male mean
  plasma concentration of Compound I-17/I-19: 6.48 ng/mL
  plasma concentration of Compound I-17/I-19 (as titled): 14.3 ng/mL
24.0 h, female individual, 10 mg/kg
  plasma concentration of Compound I-17/I-19: 2.29 ng/mL and 3.32 ng/mL
24.0 h, female mean
  plasma concentration of Compound I-17/I-19: 2.81 ng/mL
  plasma concentration of Compound I-17/I-19 (as titled): 3.70 ng/mL
24.0 h, male individual
  plasma concentration of Compound I-17/I-19: 1.16 ng/mL
24.0 h, male individual, 10 mg/kg
  plasma concentration of Compound I-17/I-19: BQL
0.500 h, female individual
  plasma concentration of Compound I-17/I-19 (as titled): 5.44 ng/mL
0.500 h, female individual, 80 mg/kg
  plasma concentration of Compound I-17/I-19 (as titled): BQL
0.500 h, male individual, 80 mg/kg
  plasma concentration of Compound I-17/I-19 (as titled): 7.45 ng/mL and 13.8 ng/mL
2.00 h, female individual, 80 mg/kg
  plasma concentration of Compound I-17/I-19 (as titled): 33.0 ng/mL and 26.4 ng/mL
2.00 h, male individual, 80 mg/kg
  plasma concentration of Compound I-17/I-19 (as titled): 25.9 ng/mL and 31.6 ng/mL
4.00 h, female individual, 80 mg/kg
  plasma concentration of Compound I-17/I-19 (as titled): 35.5 ng/mL and 25.4 ng/mL
4.00 h, male individual, 80 mg/kg
  plasma concentration of Compound I-17/I-19 (as titled): 25.6 ng/mL and 29.0 ng/mL
6.00 h, female individual, 80 mg/kg
  plasma concentration of Compound I-17/I-19 (as titled): 22.9 ng/mL and 18.1 ng/mL
6.00 h, male individual, 80 mg/kg
  plasma concentration of Compound I-17/I-19 (as titled): 14.2 ng/mL and 16.7 ng/mL
8.00 h, female individual, 80 mg/kg
  plasma concentration of Compound I-17/I-19 (as titled): 21.8 ng/mL and 14.4 ng/mL
8.00 h, male individual, 80 mg/kg
  plasma concentration of Compound I-17/I-19 (as titled): 14.9 ng/mL and 13.7 ng/mL
24.0 h, female individual, 80 mg/kg
  plasma concentration of Compound I-17/I-19 (as titled): 4.17 ng/mL and 3.23 ng/mL
24.0 h, male individual, 80 mg/kg
  plasma concentration of Compound I-17/I-19 (as titled): 2.20 ng/mL and 2.28 ng/mL
24.0 h, male mean
  plasma concentration of Compound I-17/I-19 (as titled): 2.24 ng/mL
[…] h, female mean
  plasma concentration of Compound I-17/I-19 (as titled): 15.9 ng/mL
[…] h, male mean
  plasma concentration of Compound I-17/I-19 (as titled): 22.2 ng/mL
